Data reported in patent publication US11442059B2, “Method for treating a chronic itch condition by administering small molecule MrgprX4 antagonists” (The Johns Hopkins University, priority 2017, dated 2022).
Where “and” joins values, the source holds several entries; their conditions need not be identical. Identical values can stand only once. No end group written: not given here.

Columns and labels:
MrgprA1 [1] = biological target: T1, MrgprA1 (Mus musculus, UniProt Q91WW5); experiment: FLIPR calcium assay (Flexstation3), HEK cells stably expressing MrgprA1; format: cell-based; conditions: HEK cells, FLIPR calcium dye, FIG. 18A
T1 construct: expressed in transfected cells; whole cells or crude membrane fraction
T1 sequence (Q91WW5 1-304): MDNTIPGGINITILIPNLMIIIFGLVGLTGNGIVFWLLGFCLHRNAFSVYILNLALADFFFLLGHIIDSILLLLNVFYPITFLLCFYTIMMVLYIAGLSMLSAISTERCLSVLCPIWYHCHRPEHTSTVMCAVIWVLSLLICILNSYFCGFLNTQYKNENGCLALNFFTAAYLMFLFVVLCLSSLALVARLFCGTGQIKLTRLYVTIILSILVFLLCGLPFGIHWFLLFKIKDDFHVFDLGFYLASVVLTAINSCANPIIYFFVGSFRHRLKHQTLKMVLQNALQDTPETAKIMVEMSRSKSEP
Protocol: (§1) EC50s were calculated using HEK cells stably expressing either MrgprA1 or MrgprX4. Cells were loaded with FLIPR calcium imaging dye, and a Flexstation3 machine (Molecular Devices) was used for reading changes in fluorescence. Wells were run in triplicate, and all values from each plate were normalized to the highest responding well. […] The x-axis depicts a modified logarithmic scale. […] FIG. 18B is a graph depicting the EC50 for MrgprX4 for bilirubin is approximately 3 μM.

MrgprA1 [2] = biological target: T1, MrgprA1; experiment: Fura 2-AM calcium imaging, EC50 and IC50 determinations, MRGPRA1 HEK293 cells; format: cell-based; conditions: HEK293 cells, Fura 2-AM; interval [96, 220]; read-out: EC50 calcium response MRGPRA1
Protocol: (§2) Cells were imaged in calcium imaging buffer (CIB; 10 mM HEPES, 1.2 mM NaHCO3, 130 mM NaCl, 3 mM KCl, 2.5 mM CaCl2, 0.6 mM MgCl2, 20 mM glucose, and 20 mM sucrose at pH 7.4 and 290-300 mOsm). To monitor changes in intracellular [Ca^2+] ([Ca^2+]i), cells were loaded with either Fura 2-AM (HEK293 cells) or Fluo 4-AM (DRG neurons and mast cells) for 30 min in the dark at 37° C. in CIB just prior to imaging. With Fura 2-AM, emission at 510 nm was monitored from excitation at both 340 nm and 380 nm. With Fluo 4-AM, emission at 520 nm was monitored from excitation at 488 nm. Cells were identified as responding if the intracellular [Ca^2+] rose by either 50% compared to baseline or 50% compared to the [Ca^2+]i change assayed during addition of 50 mM KCl (neurons only). Damaged, detached, high-baseline, and motion-activated cells were excluded from analysis.
(§3) In initial screens, HEK293 cells stably expressing the murine G-protein alpha-subunit Gα15, a unique Gα protein that non-selectively couples a large variety of GPCRs to phospholipase C^30, were plated on poly-D-lysine-coated coverslips and transiently transfected with constructs encoding the MRGRPR of interest. 12-24 h later, cells were loaded with the Fura 2-AM. Unless otherwise specified, compounds were perfused into the imaging chamber for approximately thirty seconds after a baseline period was established. Response was then monitored at 5 s intervals for an additional 60 s.
(§4) HEK293 cells stably expressing either MRGPRA1, MRGPRX4, and MRGRPC11 were seeded in poly-D-lysine-coated 96-well plates at 10,000 cells/well. Cells were loaded with Fura 2-AM, washed twice, and maintained in CIB. Haem metabolites were freshly dissolved in DMSO in dim light and then diluted into a buffer comprised of 20 mM Tris and 150 mM NaCl at pH 8.8. Potential changes in pH were evaluated prior to each experiment. EC50 values were determined from dose-responses performed in triplicate, repeated 2-4 times. To determine potential antagonism by QWF against bilirubin, cells were treated with varying doses of QWF for 1 min in CIB prior to application of agonist.

MrgprA1 [3] = biological target: T1, MrgprA1; experiment: Microscale thermophoresis binding assay, MRGPRA1
Protocol: (§5) Binding isotherms for MRGPRA1, MRGPRX4, and MRGRPC11 towards various ligands were determined by microscale thermophoresis with the NanoTemper monolith NT.115 instrument^27. Ligands were pre-incubated with 10 μM of the GFP-tagged receptor of interest for 5 minutes at room temperature in binding buffer (20 mM Tris and 150 mM NaCl at pH 8.8). Receptors were crudely purified as a membrane fraction from cells stably expressing the receptor^45. Haem metabolites were freshly dissolved in 0.1 M NaOH in dim light and then diluted into assay buffer. Lyophilized BAMS-22 was dissolved in binding buffer. The pH of each ligand was evaluated prior to incubation with a receptor. Samples were loaded into NT.115 Hydrophobic-Treated Capillaries from NanoTemper. Microscale thermophoretic experiments were executed using 20% LED power and 15% MST power. KDs were calculated using the law of mass action with data from three independent experiments. Binding between bilirubin and receptors was evaluated purely thermophoretically, whereas binding between BAMS-22 and MRGPRC11 was evaluated by T-Jump. Samples with dramatic deviations in initial fluorescence were excluded.

DRG neurons = experiment: Calcium imaging of dissociated DRG neurons; format: cell-based, mouse; conditions: Venn diagram FIG. 30A; Overlap=13
mice = experiment: Acute itch behaviour after injection (scratching bouts); format: in vivo, mouse; conditions: bilirubin injection
MRGPRX4 [4] = biological target: T2, MRGPRX4 (Homo sapiens, UniProt Q96LA9); experiment: FLIPR calcium assay (Flexstation3), HEK cells stably expressing MrgprX4; format: cell-based; set-up: expressed in transfected cells; whole cells or crude membrane fraction; conditions: FLIPR calcium dye, FIG. 18B
Protocol: as §1

MRGPRX4 [5] = biological target: T2, MRGPRX4; experiment: Fura 2-AM calcium imaging, EC50 determinations, MRGPRX4 HEK293 cells; format: cell-based; set-up: expressed in transfected cells; whole cells or crude membrane fraction; conditions: HEK293 cells, Fura 2-AM; interval [44, 87]; read-out: EC50 calcium response MRGPRX4
Protocol: as §2, §3
as §4, with “To determine potential antagonism by QWF against bilirubin, cells were treated with varying doses of QWF for 1 min in CIB prior to application of agonist.” left out

MRGPRX4 [6] = biological target: T2, MRGPRX4; experiment: Microscale thermophoresis binding assay, MRGPRX4; set-up: expressed in transfected cells; whole cells or crude membrane fraction
Protocol: as §5

MRGPRX3 = biological target: T3, MRGPRX3 (Homo sapiens, UniProt Q96LB0); experiment: Ca2+ response of HEK cells expressing MRGPRX3; format: cell-based
T3 construct: expressed in transfected cells; host or cells: HEK cells

human keratinocytes = experiment: Ca2+ response of primary human keratinocytes; format: cell-based
MrgprA6 = biological target: T4, MrgprA6 (Mus musculus, UniProt Q91ZC6); experiment: Ca2+ response of cells expressing mouse MrgprA6; format: cell-based
T4 construct: expressed in transfected cells; host or cells: HEK293 (transient, pcDNA3.1)
T4 sequence (Q91ZC6 1-301): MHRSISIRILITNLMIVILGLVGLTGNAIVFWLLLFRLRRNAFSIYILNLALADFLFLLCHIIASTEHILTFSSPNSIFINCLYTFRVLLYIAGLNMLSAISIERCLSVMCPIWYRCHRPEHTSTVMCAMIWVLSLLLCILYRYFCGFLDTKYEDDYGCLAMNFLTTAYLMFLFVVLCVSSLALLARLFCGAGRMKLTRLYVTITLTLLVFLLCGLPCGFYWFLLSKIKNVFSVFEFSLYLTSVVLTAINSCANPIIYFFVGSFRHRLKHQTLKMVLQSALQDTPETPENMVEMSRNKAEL

[7] = test system: MrgprA1, A4, A12, B3, and B6; experiment: Ca2+ response of cells expressing other keratinocyte Mrgprs; format: cell-based, mouse

T2 sequence (Q96LA9 whole entry): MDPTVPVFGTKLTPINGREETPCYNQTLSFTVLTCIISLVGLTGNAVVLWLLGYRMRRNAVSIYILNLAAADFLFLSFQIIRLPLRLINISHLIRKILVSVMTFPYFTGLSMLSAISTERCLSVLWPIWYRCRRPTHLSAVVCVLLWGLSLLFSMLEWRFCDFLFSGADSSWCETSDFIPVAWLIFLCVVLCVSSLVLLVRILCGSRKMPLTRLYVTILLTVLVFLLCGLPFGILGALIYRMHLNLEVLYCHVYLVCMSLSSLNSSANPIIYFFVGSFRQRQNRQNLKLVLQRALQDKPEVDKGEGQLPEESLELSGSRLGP
T3 sequence (Q96LB0 whole entry): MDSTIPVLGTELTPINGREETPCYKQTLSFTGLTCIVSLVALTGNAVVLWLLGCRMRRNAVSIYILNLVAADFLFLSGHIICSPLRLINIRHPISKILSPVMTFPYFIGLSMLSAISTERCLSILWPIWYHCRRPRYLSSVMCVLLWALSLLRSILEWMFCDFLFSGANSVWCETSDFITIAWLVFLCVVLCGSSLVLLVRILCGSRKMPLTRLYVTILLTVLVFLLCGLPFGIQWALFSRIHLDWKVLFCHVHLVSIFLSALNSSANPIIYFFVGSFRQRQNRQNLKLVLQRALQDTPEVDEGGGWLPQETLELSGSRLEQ

C=CC1=C(C)/C(=C/c2[nH]c(Cc3[nH]c(/C=C4\NC(=O)C(C)=C4C=C)c(C)c3CCC(=O)O)c(CCC(=O)O)c2C)NC1=O [bilirubin, bilirubin IXa]
EC50 (MrgprA1 [1]): ~49 µM
EC50 (MrgprA1 [2]): 146 µM
Kd (MrgprA1 [3]): 92.9 ± 15 µM
total neurons activated by the compound alone (DRG neurons): 7
scratching of Cluster−/− animals less than wild type (mice): approximately 75%
EC50 (MRGPRX4 [4]): ~3 µM and 2 µM
EC50 (MRGPRX4 [5]): 61.9 µM
Kd (MRGPRX4 [6]): 54.4 ± 13 µM

hBD3: synthetic human Beta-defensin 3, antimicrobial peptide (GIINTLQKYYCRVRGGRCAVLSCLPKEEQIGKCSTRGRKCCRRKK; ends and bridges not checked; cysteine pairing not given here)
Ca2+ response of MRGPRX3 HEK cells (MRGPRX3): robust Ca^2+ response
percentage of keratinocytes that responded (human keratinocytes; primary human keratinocytes after MRGPRX3 siRNA knock down): < 20%
percentage of keratinocytes that responded (human keratinocytes; primary human keratinocytes, control): > 80%

mBD14: mouse Beta-Defensin-14, mouse homologue of hBD3 (FLPKTLRKFFCRIRGGRCAVLNCLGKEEQIGRCSNSGRKCCRKKK; ends and bridges not checked; cysteine pairing not given here)
activation of MrgprA6 (MrgprA6): strongly activated
response of MrgprA1, A4, A12, B3, and B6 [7]: did not show any response
